The compounds below were run against human BLT1 receptor (Homo sapiens (Human), UniProt Q15722) (assay: BLT-1 cAMP Assay). Conditions: antagonist mode; HEK293 cells recombinantly expressing human BLT1 receptor; forskolin 4 μM and LTB4 2 nM; cAMP detection.
Sequence of human BLT1 receptor (Q15722 whole entry): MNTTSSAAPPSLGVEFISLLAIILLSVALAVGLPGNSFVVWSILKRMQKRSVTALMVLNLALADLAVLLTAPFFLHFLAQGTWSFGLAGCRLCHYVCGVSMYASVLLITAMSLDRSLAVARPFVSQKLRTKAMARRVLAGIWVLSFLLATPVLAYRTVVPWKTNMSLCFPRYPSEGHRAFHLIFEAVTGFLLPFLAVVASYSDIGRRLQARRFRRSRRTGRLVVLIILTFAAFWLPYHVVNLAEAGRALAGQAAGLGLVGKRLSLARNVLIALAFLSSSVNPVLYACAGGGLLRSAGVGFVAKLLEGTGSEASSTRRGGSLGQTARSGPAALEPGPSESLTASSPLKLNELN
Format: cell-based
Protocol: The ability of compounds to antagonize the human BLT1 receptor was determined using a kit to measure changes in intracellular cyclic AMP levels (cAMP dynamic assay kit, Cisbio Cat. No. 62AM4PEC). HEK293 cells recombinantly expressing human BLT1 receptor, previously frozen in Recovery Medium (Life Technologies, Cat. No. 12648-010) were thawed and diluted into assay medium (HBSS (Hyclone SH 30268.01), 20 mM HEPES (Gibco 15630-106), 800 μM IBMX (Sigma I5879), 0.1% DTPA BSA (Perkin Elmer CR84-100)). The cell suspension was centrifuged at 200×g for 10 min and then resuspended in fresh assay medium to a density of 2.5×10^5 cells/mL. A Labcyte Echo 550 acoustic dispenser was used to transfer 25 nL of test compound dissolved in DMSO into the wells of a dry 384-well plate (Greiner 784075). All subsequent liquid additions were performed using a BIORAPTR (FRD; Beckman Coulter). Next, 5 μL of cell suspension was added and incubated for 20 min. at 37° C. and 5% CO2 in a humidified plastic tray. To test for agonist activity […] of assay buffer containing forskolin (Sigma F-6886. 4 μM for BLT1) was added and incubated for 30 minutes at 37° C. and 5% CO2 in a humidified plastic tray. To test for antagonist activity 5 μL of assay buffer containing forskolin (Sigma F-6886. 4 μM for BLT1) and either LTB4 (Sigma Aldrich L0517; 2 nM BLT1) was added and incubated for 30 minutes at 37° C. and 5% CO2 in a humidified plastic tray.
The levels of cAMP were detected using the CisBio kit following the manufacturer's instructions: cAMP-d2 vial was reconstituted with distilled water and then diluted accordingly with conjugate & lysis buffer. 5 μL of cAMP-d2 working solution was added to all of the wells of the assay plate. cAMP-Cryptate vial was reconstituted with distilled water and then diluted accordingly with conjugate & lysis buffer. 5 μL of cAMP-Cryptate working solution were added to the assay plate. The assay plate was shaken for 3 minutes and incubated at room temperature for 45 minutes, then read on Perkin Elmer Envision. cAMP standard curve and fit data were plotted using a 4 parameter dose response curve fitting algorithm to fit curve. A 4-parameter curve fit (Max, min, log EC50 and slope) was used to transform fluorescent 665 nm/615 nm ratio signal to cAMP concentration. After normalization to treated and untreated controls, the percent effect of signal at each compound concentration was calculated. The plot of percent effect versus the log of compound concentration was fit with a 4-parameter concentration response equation to calculate EC50 values. Compound concentrations tested were 10 000, 3 333, 1 111, 370.4, 123.4, 41.2, 13.7, 4.6, 1.5 and 0.5 nM with 0.25% residual DMSO.
Compound `CC1(S(=O)(=O)NC(=O)c2ccccc2-c2ccc3c(c2)OC[C@H](Cc2cscn2)[C@H]3O)CC1` (racemic) [Example 25, 2-(Rac-trans)-4-Hydroxy-3-(thiazol-4-ylmethyl)chroman-7-yl)-N-((1-methylcyclopropyl)sulfonyl)benzamide] has an EC50 of 16 nM.
Work on `Cn1nccc1C[C@@H]1COc2cc(-c3ccccc3C(=O)NS(=O)(=O)C3(C)CC3)ccc2[C@H]1O` (racemic) [Example 28, 2-(Rac-trans)-4-Hydroxy-3-((1-methyl-1H-pyrazol-5-yl)methyl)chroman-7-yl)-N-((1-methylcyclopropyl)sulfonyl)benzamide] yielded an EC50 of 360 nM.
Work on `Cc1nnc(C[C@@H]2COc3cc(-c4ccccc4C(=O)NS(=O)(=O)C4(C)CC4)ccc3[C@H]2O)s1` (racemic) [Example 29, 2-((Rac-trans)-4-Hydroxy-3-((5-methyl-1,3,4-thiadiazol-2-yl)methyl)chroman-7-yl)-N-((1-methylcyclopropyl)sulfonyl)benzamide] yielded an EC50 of 740 nM.
`Cc1nnc(C[C@@H]2COc3cc(-c4ccccc4C(=O)NS(=O)(=O)C(C)(C)C)ccc3[C@H]2O)s1` (racemic) [Example 31, N-(tert-Butylsulfonyl)-2-((rac-trans)-4-hydroxy-3-((5-methyl-1,3,4-thiadiazol-2-yl)methyl)chroman-7-yl)benzamide] was tested, and the EC50 was 556 nM.
`CC(C)(C)S(=O)(=O)NC(=O)c1ccccc1-c1ccc2c(c1)OC[C@@H](Cc1cscn1)[C@@H]2O` (racemic) [Example 32, N-(tert-Butylsulfonyl)-2-((rac-trans)-4-hydroxy-3-(thiazol-4-ylmethyl)chroman-7-yl)benzamide] showed an EC50 of 11 nM.
`Cn1nccc1C[C@@H]1COc2cc(-c3ccccc3C(=O)NS(=O)(=O)C(C)(C)C)ccc2[C@H]1O` (racemic) [Example 35, N-(tert-Butylsulfonyl)-2-((rac-trans)-4-hydroxy-3-((1-methyl-1H-pyrazol-5-yl)methyl)chroman-7-yl)benzamide] gave an EC50 of 95 nM.
In the case of `CCn1nccc1C[C@@H]1COc2cc(-c3ccccc3C(=O)NS(=O)(=O)C(C)(C)C)ccc2[C@H]1O` (racemic) [Example 36, N-(tert-Butylsulfonyl)-2-((rac-trans)-3-((1-ethyl-1H-pyrazol-5-yl)methyl)-4-hydroxychroman-7-yl)benzamide], the EC50 is reported as 81 nM.
`O=C(NS(=O)(=O)C(F)(F)F)c1ccc(F)cc1-c1ccc2c(c1)OC[C@H](Cc1ccc(-c3ccccc3)cc1)[C@@H]2O` (racemic) [Example 39, 2-((Rac-cis)-3-([1,1′-Biphenyl]-4-ylmethyl)-4-hydroxychroman-7-yl)-4-fluoro-N-((trifluoromethyl)sulfonyl)benzamide] showed an EC50 of 37 nM.
`O=C(NS(=O)(=O)C(F)(F)F)c1ccc(F)cc1-c1ccc2c(c1)OC[C@H](Cc1ccc(-c3ccccc3)cc1)[C@H]2O` (racemic) [Example 40, 2-((Rac-trans)-3-([1,1′-Biphenyl]-4-ylmethyl)-4-hydroxychroman-7-yl)-4-fluoro-N-((trifluoromethyl)sulfonyl)benzamide] gave an EC50 of 9 nM.
`CC1(S(=O)(=O)NC(=O)c2ccccc2-c2ccc3c(c2)OC[C@@H](Cc2coc(-c4ccccc4)n2)[C@@H]3O)CC1` (racemic) [Example 43, 2-(Rac-trans)-4-hydroxy-3-((2-phenyloxazol-4-yl)methy)chroman-7-yl)-N-((1-methylcyclopropyl)sulfonyl)benzamide] was tested, and the EC50 was 19 nM.
`CC1(S(=O)(=O)NC(=O)c2ccccc2-c2ccc3c(c2)OCC(Cc2coc(-c4ccccc4)n2)C3O)CC1` (racemic) [Example 46, 2-(Rac-trans)-4-Hydroxy-3-((2-phenyloxazol-4-yl)methyl)chroman-7-yl)-N-((1-methylcyclopropyl)sulfonyl)benzamide] gave an EC50 of 15 nM.
Compound `O=C(NS(=O)(=O)C(F)(F)F)c1ccc(F)cc1-c1ccc2c(c1)OC[C@@H](Cc1ccccn1)[C@@H]2O` (single isomer, unassigned) [Example 1, 4-Fluoro-2-((3R,4S or 3S,4R)-4-hydroxy-3-(pyridin-2-ylmethyl)chroman-7-yl)-N-((trifluoromethyl)sulfonyl)benzamide] has an EC50 of 650 nM.
Compound `O=C(NS(=O)(=O)C(F)(F)F)c1ccc(F)cc1-c1ccc2c(c1)OC[C@H](Cc1ccccn1)[C@H]2O` (single isomer, unassigned) [Example 2, 4-Fluoro-2-((3S,4R or 3R,4S)-4-hydroxy-3-(pyridin-2-ylmethyl)chroman-7-yl)-N-((trifluoromethyl)sulfonyl)benzamide] has an EC50 of 6 nM.
In the case of `CS(=O)(=O)NC(=O)c1ccc(F)cc1-c1ccc2c(c1)OC[C@@H](Cc1ccccn1)[C@@H]2O` (single isomer, unassigned) [Example 3, 4-Fluoro-2-((3R,4S or 3S,4R)-4-hydroxy-3-(pyridin-2-ylmethyl)chroman-7-yl)-N-(methylsulfonyl)benzamide], the EC50 is reported as 1720 nM.
With `CS(=O)(=O)NC(=O)c1ccc(F)cc1-c1ccc2c(c1)OC[C@H](Cc1ccccn1)[C@H]2O` (single isomer, unassigned) [Example 4, 4-Fluoro-2-((3S,4R or 3R,4S)-4-hydroxy-3-(pyridin-2-ylmethyl)chroman-7-yl)-N-(methylsulfonyl)benzamide] the EC50 was 93 nM.
In the case of `O=C(NS(=O)(=O)C1CC1)c1ccccc1-c1ccc2c(c1)OC[C@@H](Cc1ccccn1)[C@@H]2O` (single isomer, unassigned) [Example 5, N-(Cyclopropylsulfonyl)-2-((3R,4S or 3S,4R)-4-hydroxy-3-(pyridin-2-ylmethyl)chroman-7-yl)benzamide], the EC50 is reported as 2170 nM.
`O=C(NS(=O)(=O)C1CC1)c1ccccc1-c1ccc2c(c1)OC[C@H](Cc1ccccn1)[C@H]2O` (single isomer, unassigned) [Example 6, N-(Cyclopropylsulfonyl)-2-((3S,4R or 3R,4S)-4-hydroxy-3-(pyridin-2-ylmethyl)chroman-7-yl)benzamide] showed an EC50 of 28 nM.
Compound `CC1(S(=O)(=O)NC(=O)c2ccccc2-c2ccc3c(c2)OC[C@@H](Cc2ccccn2)[C@@H]3O)CC1` (single isomer, unassigned) [Example 7, 2-((3R,4S or 3S,4R)-4-Hydroxy-3-(pyridin-2-ylmethyl)chroman-7-yl)-N-((1-methylcyclopropyl)sulfonyl)benzamide] has an EC50 of 1270 nM.
Compound `CC1(S(=O)(=O)NC(=O)c2ccccc2-c2ccc3c(c2)OC[C@H](Cc2ccccn2)[C@H]3O)CC1` (single isomer, unassigned) [Example 8, 2-((3S,4R or 3R,4S)-4-Hydroxy-3-(pyridin-2-ylmethyl)chroman-7-yl)-N-((1-methylcyclopropyl)sulfonyl)benzamide] has an EC50 of 22 nM.
`CC1(S(=O)(=O)NC(=O)c2ccc(F)cc2-c2ccc3c(c2)OC[C@H](Cc2ccccn2)[C@H]3O)CC1` (single isomer, unassigned) [Example 9, 4-Fluoro-2-((3S,4R or 3R,4S)-4-hydroxy-3-(pyridin-2-ylmethyl)chroman-7-yl)-N-((1-methylcyclopropyl)sulfonyl)benzamide] was tested, and the EC50 was 4 nM.
`CC1(S(=O)(=O)NC(=O)c2ccc(F)cc2-c2ccc3c(c2)OC[C@@H](Cc2ccccn2)[C@@H]3O)CC1` (single isomer, unassigned) [Example 10, 4-Fluoro-2-((3R,4S or 3S,4R)-4-hydroxy-3-(pyridin-2-ylmethyl)chroman-7-yl)-N-((1-methylcyclopropyl)sulfonyl)benzamide] was tested, and the EC50 was 870 nM.
For `CC(C)(C)S(=O)(=O)NC(=O)c1ccccc1-c1ccc2c(c1)OC[C@@H](Cc1ccccn1)[C@@H]2O` (single isomer, unassigned) [Example 11, N-(tert-Butylsulfonyl)-2-((3R,4S or 3S,4R)-4-hydroxy-3-(pyridin-2-ylmethyl)chroman-7-yl)benzamide], the EC50 was 144 nM.
`CC(C)(C)S(=O)(=O)NC(=O)c1ccccc1-c1ccc2c(c1)OC[C@H](Cc1ccccn1)[C@H]2O` (single isomer, unassigned) [Example 12, N-(tert-Butylsulfonyl)-2-((3S,4R or 3R,4S)-4-hydroxy-3-(pyridin-2-ylmethyl)chroman-7-yl)benzamide] gave an EC50 of 17 nM.
Compound `CC(C)(C)S(=O)(=O)NC(=O)c1ccc(F)cc1-c1ccc2c(c1)OC[C@@H](Cc1ccccn1)[C@@H]2O` (single isomer, unassigned) [Example 13, N-(tert-Butylsulfonyl)-4-fluoro-2-((3R,4S or 3S,4R)-4-hydroxy-3-(pyridin-2-ylmethyl)chroman-7-yl)benzamide] has an EC50 of 441 nM.

Source: patent US10336733B2, “Aryl acylsulfonamides as BLT1 antagonists” (Merck Sharp & Dohme Corp., priority 2015, dated 2019)
